Results published in PubChem BioAssay (NCI).
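The compound was tested at five concentrations on cells cultured in 96-well plates, with a 48-hour exposure period. TGI: total growth inhibition.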

Key:
Assay in all cases: inhibition of tumour cell growth, NCI panel, 48 h
786-0 renal = test system: 786-0 renal
A498 renal = test system: A498 renal
A549 NSCLC = test system: A549 NSCLC
ACHN renal = test system: ACHN renal
BT-549 breast = test system: BT-549 breast
CAKI-1 renal = test system: CAKI-1 renal
CCRF-CEM leukemia = test system: CCRF-CEM leukemia
COLO 205 colon = test system: COLO 205 colon
DU-145 prostate = test system: DU-145 prostate
EKVX NSCLC = test system: EKVX NSCLC
HCC-2998 colon = test system: HCC-2998 colon
HCT-116 colon = test system: HCT-116 colon
HCT-15 colon = test system: HCT-15 colon
HL-60(TB) leukemia = test system: HL-60(TB) leukemia
HOP-62 NSCLC = test system: HOP-62 NSCLC
HOP-92 NSCLC = test system: HOP-92 NSCLC
HS 578T breast = test system: HS 578T breast
HT29 colon = test system: HT29 colon
IGROV1 ovarian = test system: IGROV1 ovarian
K-562 leukemia = test system: K-562 leukemia
KM12 colon = test system: KM12 colon
LOX IMVI melanoma = test system: LOX IMVI melanoma
M14 melanoma = test system: M14 melanoma
MALME-3M melanoma = test system: MALME-3M melanoma
MCF7 breast = test system: MCF7 breast
MDA-MB-231 breast = test system: MDA-MB-231 breast
MDA-MB-435 = test system: MDA-MB-435
MDA-N = test system: MDA-N
NCI-H226 lung = test system: NCI-H226 lung
NCI-H23 lung = test system: NCI-H23 lung
NCI-H460 lung = test system: NCI-H460 lung
NCI/ADR-RES ovarian = test system: NCI/ADR-RES ovarian
OVCAR-3 ovarian = test system: OVCAR-3 ovarian
OVCAR-4 ovarian = test system: OVCAR-4 ovarian
OVCAR-5 ovarian = test system: OVCAR-5 ovarian
OVCAR-8 ovarian = test system: OVCAR-8 ovarian
PC-3 prostate = test system: PC-3 prostate
RPMI-8226 leukemia = test system: RPMI-8226 leukemia
RXF 393 renal = test system: RXF 393 renal
SF-268 CNS = test system: SF-268 CNS
SF-295 CNS = test system: SF-295 CNS
SF-539 CNS = test system: SF-539 CNS
SK-MEL-2 melanoma = test system: SK-MEL-2 melanoma
SK-MEL-28 melanoma = test system: SK-MEL-28 melanoma
SK-MEL-5 melanoma = test system: SK-MEL-5 melanoma
SK-OV-3 ovarian = test system: SK-OV-3 ovarian
SN12C renal = test system: SN12C renal
SNB-19 CNS = test system: SNB-19 CNS
SNB-75 CNS = test system: SNB-75 CNS
SR leukemia = test system: SR leukemia
SW-620 colon = test system: SW-620 colon
T-47D breast = test system: T-47D breast
TK-10 renal = test system: TK-10 renal
U251 CNS = test system: U251 CNS
UACC-257 melanoma = test system: UACC-257 melanoma
UACC-62 melanoma = test system: UACC-62 melanoma
UO-31 renal = test system: UO-31 renal
NCI-H522 lung = test system: NCI-H522 lung
MOLT-4 leukemia = test system: MOLT-4 leukemia

With `CCn1ncc(Oc2c(Cl)cc(N)cc2Cl)c(Cl)c1=O` the TGI (786-0 renal) was over 100 µM, the TGI (A498 renal) was over 100 µM and the TGI (A549 NSCLC) was over 100 µM. For the same compound, the TGI (ACHN renal) was over 100 µM, the TGI (BT-549 breast) was 91.1 µM and the TGI (CAKI-1 renal) was over 100 µM. It also gave a TGI (CCRF-CEM leukemia) of over 100 µM, a TGI (COLO 205 colon) of 46.9 µM and a TGI (DU-145 prostate) of over 100 µM. It also gave a TGI (EKVX NSCLC) of over 100 µM, a TGI (HCC-2998 colon) of over 100 µM and a TGI (HCT-116 colon) of 80.8 µM. The TGI (HCT-15 colon) was over 100 µM, the TGI (HL-60(TB) leukemia) was over 100 µM and the TGI (HOP-62 NSCLC) was over 100 µM. For the same compound, the TGI (HOP-92 NSCLC) was over 100 µM, the TGI (HS 578T breast) was 67.6 µM and the TGI (HT29 colon) was 58.5 µM. It also gave a TGI (IGROV1 ovarian) of over 100 µM, a TGI (K-562 leukemia) of over 100 µM and a TGI (KM12 colon) of over 100 µM. It also gave a TGI (LOX IMVI melanoma) of over 100 µM, a TGI (M14 melanoma) of over 100 µM and a TGI (MALME-3M melanoma) of over 100 µM. The TGI (MCF7 breast) was over 100 µM, the TGI (MDA-MB-231 breast) was over 100 µM and the TGI (MDA-MB-435) was over 100 µM. For the same compound, the TGI (MDA-N) was 79.6 µM, the TGI (NCI-H226 lung) was over 100 µM and the TGI (NCI-H23 lung) was over 100 µM. It also gave a TGI (NCI-H460 lung) of over 100 µM, a TGI (NCI/ADR-RES ovarian) of over 100 µM and a TGI (OVCAR-3 ovarian) of 40.7 µM. It also gave a TGI (OVCAR-4 ovarian) of over 100 µM, a TGI (OVCAR-5 ovarian) of over 100 µM and a TGI (OVCAR-8 ovarian) of over 100 µM. The TGI (PC-3 prostate) was over 100 µM, the TGI (RPMI-8226 leukemia) was over 100 µM and the TGI (RXF 393 renal) was over 100 µM. For the same compound, the TGI (SF-268 CNS) was over 100 µM, the TGI (SF-295 CNS) was 63.6 µM and the TGI (SF-539 CNS) was over 100 µM. For the same compound, the TGI (SK-MEL-2 melanoma) was over 100 µM, the TGI (SK-MEL-28 melanoma) was over 100 µM and the TGI (SK-MEL-5 melanoma) was 65 µM. The TGI (SK-OV-3 ovarian) was 77.9 µM, the TGI (SN12C renal) was over 100 µM and the TGI (SNB-19 CNS) was over 100 µM. It also gave a TGI (SNB-75 CNS) of over 100 µM, a TGI (SR leukemia) of 80.7 µM and a TGI (SW-620 colon) of over 100 µM. The TGI (T-47D breast) was over 100 µM, the TGI (TK-10 renal) was over 100 µM and the TGI (U251 CNS) was over 100 µM. For the same compound, the TGI (UACC-257 melanoma) was over 100 µM, the TGI (UACC-62 melanoma) was over 100 µM and the TGI (UO-31 renal) was over 100 µM.
`COC1/C=C/C(C)C(OC)CC(O)/C=C/C(C)C(C(C)C(OC)C(C)CCC(=O)C(C)C(C/C=C/N(C)C=O)OC)OC(=O)/C=C/C=C(\C)CC(OC)CC2=CC(=O)O[C@@H](C(C)C(OC)C1)[C@H]2O` (some centres not stated) gave a TGI (786-0 renal) of 0.503 µM, a TGI (A498 renal) of 0.131 µM and a TGI (A549 NSCLC) of 1.1 µM. It also gave a TGI (ACHN renal) of 1.32 µM, a TGI (BT-549 breast) of 0.498 µM and a TGI (CAKI-1 renal) of 0.0875 µM. It also gave a TGI (COLO 205 colon) of 0.418 µM, a TGI (DU-145 prostate) of over 6.79 µM and a TGI (EKVX NSCLC) of 1.32 µM. The TGI (HCC-2998 colon) was 1.35 µM, the TGI (HCT-116 colon) was 0.41 µM and the TGI (HCT-15 colon) was 0.62 µM. For the same compound, the TGI (HL-60(TB) leukemia) was over 25 µM, the TGI (HOP-62 NSCLC) was 0.16 µM and the TGI (HOP-92 NSCLC) was 0.168 µM. It also gave a TGI (HS 578T breast) of 0.261 µM, a TGI (HT29 colon) of over 5.01 µM and a TGI (IGROV1 ovarian) of 0.423 µM. For the same compound, the TGI (K-562 leukemia) was over 25 µM, the TGI (KM12 colon) was over 6.11 µM and the TGI (M14 melanoma) was 0.175 µM. For the same compound, the TGI (MALME-3M melanoma) was 0.317 µM, the TGI (MCF7 breast) was 0.409 µM and the TGI (MDA-MB-231 breast) was 0.106 µM. It also gave a TGI (MDA-MB-435) of 1.05 µM, a TGI (MDA-N) of 0.178 µM and a TGI (NCI-H23 lung) of 1.06 µM. For the same compound, the TGI (NCI-H460 lung) was 0.477 µM, the TGI (NCI-H522 lung) was 0.653 µM and the TGI (NCI/ADR-RES ovarian) was 1.14 µM. The TGI (OVCAR-4 ovarian) was 1.21 µM, the TGI (OVCAR-5 ovarian) was 1.86 µM and the TGI (OVCAR-8 ovarian) was 0.776 µM. For the same compound, the TGI (PC-3 prostate) was 1.09 µM, the TGI (RPMI-8226 leukemia) was 3.7 µM and the TGI (RXF 393 renal) was 0.265 µM. For the same compound, the TGI (SF-268 CNS) was over 5.72 µM, the TGI (SF-295 CNS) was 0.362 µM and the TGI (SF-539 CNS) was 0.434 µM. For the same compound, the TGI (SK-MEL-28 melanoma) was 0.385 µM, the TGI (SK-MEL-5 melanoma) was 0.274 µM and the TGI (SK-OV-3 ovarian) was 0.905 µM. For the same compound, the TGI (SN12C renal) was over 25 µM, the TGI (SNB-19 CNS) was 0.239 µM and the TGI (SNB-75 CNS) was 0.32 µM. It also gave a TGI (SR leukemia) of over 25 µM, a TGI (SW-620 colon) of over 12.4 µM and a TGI (T-47D breast) of 6.27 µM. It also gave a TGI (TK-10 renal) of 0.785 µM, a TGI (U251 CNS) of 0.199 µM and a TGI (UACC-257 melanoma) of 0.318 µM. The TGI (UACC-62 melanoma) was 0.504 µM and the TGI (UO-31 renal) was 0.3 µM.
`NC(Cc1c[nH]c2ccccc12)P(=O)(O)O` (configuration not stated) showed a TGI (786-0 renal) of over 100 µM, a TGI (A498 renal) of over 100 µM and a TGI (A549 NSCLC) of over 100 µM. It also gave a TGI (ACHN renal) of over 100 µM, a TGI (BT-549 breast) of over 100 µM and a TGI (CAKI-1 renal) of over 100 µM. It also gave a TGI (CCRF-CEM leukemia) of over 100 µM, a TGI (COLO 205 colon) of over 100 µM and a TGI (DU-145 prostate) of over 100 µM. For the same compound, the TGI (EKVX NSCLC) was over 100 µM, the TGI (HCC-2998 colon) was over 100 µM and the TGI (HCT-116 colon) was over 100 µM. The TGI (HCT-15 colon) was over 100 µM, the TGI (HL-60(TB) leukemia) was over 100 µM and the TGI (HOP-62 NSCLC) was over 100 µM. For the same compound, the TGI (HS 578T breast) was over 100 µM, the TGI (HT29 colon) was over 100 µM and the TGI (IGROV1 ovarian) was over 100 µM. The TGI (K-562 leukemia) was over 100 µM, the TGI (KM12 colon) was over 100 µM and the TGI (M14 melanoma) was over 100 µM. It also gave a TGI (MALME-3M melanoma) of over 100 µM, a TGI (MCF7 breast) of over 100 µM and a TGI (MDA-MB-231 breast) of over 100 µM. It also gave a TGI (MDA-MB-435) of over 100 µM, a TGI (MDA-N) of over 100 µM and a TGI (MOLT-4 leukemia) of over 100 µM. It also gave a TGI (NCI-H226 lung) of over 100 µM, a TGI (NCI-H23 lung) of over 100 µM and a TGI (NCI-H460 lung) of over 100 µM. For the same compound, the TGI (NCI-H522 lung) was over 100 µM, the TGI (NCI/ADR-RES ovarian) was over 100 µM and the TGI (OVCAR-3 ovarian) was over 100 µM. It also gave a TGI (OVCAR-4 ovarian) of over 100 µM, a TGI (OVCAR-5 ovarian) of over 100 µM and a TGI (OVCAR-8 ovarian) of over 100 µM. The TGI (PC-3 prostate) was over 100 µM, the TGI (RPMI-8226 leukemia) was over 100 µM and the TGI (RXF 393 renal) was over 100 µM. It also gave a TGI (SF-268 CNS) of over 100 µM, a TGI (SF-295 CNS) of over 100 µM and a TGI (SF-539 CNS) of over 100 µM. For the same compound, the TGI (SK-MEL-2 melanoma) was over 100 µM, the TGI (SK-MEL-28 melanoma) was over 100 µM and the TGI (SK-MEL-5 melanoma) was over 100 µM. It also gave a TGI (SK-OV-3 ovarian) of over 100 µM, a TGI (SN12C renal) of over 100 µM and a TGI (SNB-19 CNS) of over 100 µM. For the same compound, the TGI (SNB-75 CNS) was over 100 µM, the TGI (SR leukemia) was over 100 µM and the TGI (SW-620 colon) was over 100 µM. For the same compound, the TGI (T-47D breast) was over 100 µM, the TGI (TK-10 renal) was over 100 µM and the TGI (U251 CNS) was over 100 µM. It also gave a TGI (UACC-257 melanoma) of over 100 µM, a TGI (UACC-62 melanoma) of over 100 µM and a TGI (UO-31 renal) of over 100 µM.
